Patent publication US20150306049A1, “IMMEDIATE RELEASE FORMULATIONS OF CINACALCET” (K.H.S. PHARMA HOLDING GMBH, priority 2012, published 2015)
Where two headings read alike, the source gives them in different places.

Conditions: for % Dissolution: 200 mg in 900 ml 0.1 N HCl, 37.0°C, 75 rpm
Protocol: 200mg of cinacalcet HCl of different D50 values was dropped into a vessel containing 900 ml of dissolution medium (0.1 N HCl) at 37.0+/−0.5° C. and stirred at 75 rpm.

solubility (dissolution) compared with larger particle sizes: much lower solubility
% Dissolution (D50 = 20 μm, 0 min, D50 = 89 μm after 60 min set to 100%): 0%
% Dissolution (D50 = 20 μm, 15 min, D50 = 89 μm after 60 min set to 100%): 24%
% Dissolution (D50 = 20 μm, 30 min, D50 = 89 μm after 60 min set to 100%): 52%
% Dissolution (D50 = 20 μm, 45 min, D50 = 89 μm after 60 min set to 100%): 74%
% Dissolution (D50 = 20 μm, 60 min, D50 = 89 μm after 60 min set to 100%): 86%
% Dissolution (D50 = 82 μm, 0 min, D50 = 89 μm after 60 min set to 100%): 0%
% Dissolution (D50 = 82 μm, 15 min, D50 = 89 μm after 60 min set to 100%): 90%
% Dissolution (D50 = 82 μm, 30 min, D50 = 89 μm after 60 min set to 100%): 96%
% Dissolution (D50 = 82 μm, 45 min, D50 = 89 μm after 60 min set to 100%): 98%
% Dissolution (D50 = 82 μm, 60 min, D50 = 89 μm after 60 min set to 100%): 98%
% Dissolution (D50 = 89 μm, 0 min, D50 = 89 μm after 60 min set to 100%): 0%
% Dissolution (D50 = 89 μm, 15 min, D50 = 89 μm after 60 min set to 100%): 87%
% Dissolution (D50 = 89 μm, 30 min, D50 = 89 μm after 60 min set to 100%): 98%
% Dissolution (D50 = 89 μm, 45 min, D50 = 89 μm after 60 min set to 100%): 99%
% Dissolution (D50 = 89 μm, 60 min, set to 100%): 100%
SMILES: C[C@@H](NCCCc1cccc(C(F)(F)F)c1)c1cccc2ccccc12.Cl [cinacalcet HCl]
